Read-outs that look alike come from different tables or passages of the source.
Experiments:
hSTINGmut [1] = target: T1, hSTINGmut (Homo sapiens, UniProt Q86WV6, G230I/H232R/Q266I/S162A); test: DMXAA mediated expression of STING-derived cytokines (qPCR); assay type: cell-based; settings: hSTINGmut-transduced MC38 and Hep2G cells; 50 μg/mL DMXAA, 3 h or 6 h
T1 construct: expressed in transfected cells
Experimental: (§1) As a readout, the expression of STING-derived cytokines was measured by qPCR.
(§2) To this end, MC38 and Hep2G cells have been transduced with lentiviruses encoding luciferase, hSTINGwt, hSTINGmut to obtain stable cell lines as described above or were not transduced with any lentivirus (no vector). Respective cells were seeded in 24-well plates at a density of 750 cells/mm^2 in growth medium. […] Cells were harvested and prepared for qPCR measurements as described above. The expression of the cytokines IFN-β, TNF-α, IL-6, CXCL9 and CXCL10 were measured for either experimental group and expression levels relative to controls (no vector) were quantified.

hSTINGwt = target: T2, hSTINGwt (Homo sapiens, UniProt Q86WV6, H232R); test: as above; assay type: cell-based; settings: other groups (luciferase, hSTINGwt, no vector); 50 μg/mL DMXAA
T2 construct: expressed in transfected cells
T2 sequence (Q86WV6 whole entry H232R): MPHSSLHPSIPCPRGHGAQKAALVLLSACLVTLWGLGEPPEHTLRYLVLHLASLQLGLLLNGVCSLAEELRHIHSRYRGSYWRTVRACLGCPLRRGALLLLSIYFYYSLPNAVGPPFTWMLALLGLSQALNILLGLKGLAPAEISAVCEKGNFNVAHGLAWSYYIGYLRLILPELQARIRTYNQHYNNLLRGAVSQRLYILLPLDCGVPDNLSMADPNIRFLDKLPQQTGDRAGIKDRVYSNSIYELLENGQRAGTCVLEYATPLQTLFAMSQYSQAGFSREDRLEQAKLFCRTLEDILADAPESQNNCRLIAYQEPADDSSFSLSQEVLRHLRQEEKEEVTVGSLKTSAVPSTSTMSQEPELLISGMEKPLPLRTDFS
Experimental: as §1, §2

hSTINGmut [2] = target: T1, hSTINGmut; test: Time-course expression of STING-derived cytokines upon DMXAA treatment; assay type: cell-based; settings: MC38 and Hep2G cells encoding hSTINGmut; 50 μg/mL DMXAA; any given timepoint
Experimental: The objective of this experiment was to examine the time-course of STING-derived cytokine expression upon DMXAA treatment. As a readout, the expression of STING-derived cytokines was measured by qPCR.
To this end, stable cell lines of MC38 and Hep2G cells encoding hSTINGmut have been obtained as described above. […] Cells were harvested and prepared for qPCR measurements as described above.

STING = test system: STING
Experimental: C57 wild type mice, aged 6 to 10 weeks, were injected intravenously with an AAV8 vector encoding either hSTINGmut (AAV8-hSTINGmut, 1×10^11 viral genomes) or as a control GFP (AAV8-GFP, 1.5×10^11 viral genomes).

MC38 cells [3] = test: Synergism proof of principle I, IFN-β mRNA; assay type: cell-based, murine
Experimental: To this end, MC38 cells received 8 Gy or 0 Gy as described above (example 7). Cells were seeded thereafter at 750 cells/mm^2 density and were then either mock-transduced or transduced with AAV8-hSTINGmut (1×10^5 viral genomes/cell). For cell transduction 8.5×10^9 viral genomes of AAV8-hSTINGmut from known concentration stock solutions, were resuspended in 50 μl RPMI 2% FBS. The resuspended viral particles were then added to the wells where the cells were seeded.

MC38 cells [4] = test: Synergism proof of principle II, IL-12 mRNA; assay type: cell-based, murine; settings: cells transduced with AAV8-hSTINGmut plus AAV8-ISREx4-IL12miR122T
Experimental: […] The resuspended viral particles were then added to the wells where the cells were seeded. […] The IL-12 mRNA was determined by qPCR as described above (example 3) and expression levels were quantified in reference to non-transduced, non-irradiated cells treated with vehicle.

HEK293 cells = test: Synergism proof of principle III, IFN-β and IL-12 mRNA; assay type: cell-based, human; settings: for IFN-β expression levels: hSTINGmut expressing HEK293 cells
Experimental: The IFN-β and the IL-12 mRNA expression levels were determined by qPCR as described above (example 1) and expression levels were quantified in reference to the indicated controls.

[5] = test system: native non-transduced MC38 cells; test: Synergism proof of principle IV, IFN-β protein; assay type: cell-based, murine
From the text: To this end, native non-transduced MC38 cells received 0 Gy, 2 Gy or 8 Gy as described above.

MC38 tumors = test: Synergism of DMXAA and radiotherapy in a humanized mouse model in vivo, cytokine levels; set-up: species or system STING KO mice; settings: tumor extracts 6 h after DMXAA 20 mg/kg; irradiated
[6] = human, in vivo; cited from earlier work
human STING = human STING (Homo sapiens, UniProt Q86WV6, H232R); settings: cited from earlier work
Sequence of human STING (Q86WV6 whole entry H232R): as above

[7] = target: hSTING[R]-S162A/G230I/Q266I (Homo sapiens, UniProt Q86WV6, G230I/H232R/Q266I/S162A); settings: cited from earlier work
Sequence of hSTING[R]-S162A/G230I/Q266I (Q86WV6 whole entry S162A/G230I/H232R/Q266I): as the sequence (Q86WV6 whole entry H232R) above, with S162A, G230I, Q266I counted along it

established tumors = settings: intratumor injections; STING-dependent; cited from earlier work
[8] = 5 or 10 mg DMXAA/kg, AAV8-hSTINGmut transduced mice

T1 sequence (Q86WV6 whole entry S162A/G230I/H232R/Q266I): as the sequence (Q86WV6 whole entry H232R) above, with S162A, G230I, Q266I counted along it

SMILES: Cc1ccc2c(=O)c3cccc(CC(=O)O)c3oc2c1C [DMXAA, 5,6-Dimethylxanthenone-4-acetic acid]
- expression of cytokines IFN-β, TNF-α, IL-6, CXCL9 and CXCL10 (hSTINGmut [1]): elevated
- expression of cytokines IFN-β, TNF-α, IL-6, CXCL9 and CXCL10 (hSTINGwt): no significant alteration
- time-course of STING-derived cytokine expression (hSTINGmut [2]): increase in expression levels
- IFN-β levels in serum (STING; 20 mg DMXAA/kg i.p., AAV8-GFP transduced control animals, 3 h after injection): elevation of IFN-β levels
- toxicity and mortality (STING; 20 mg DMXAA/kg repeated, AAV8-GFP and AAV8-hSTINGmut mice (systemic STING stimulation)): high toxicity and mortality
- IFN-β levels in serum (STING; [8]): only very low levels
- toxicity and mortality (STING; [8]): neither cause significant toxicity nor mortality
- IFN-β mRNA expression (MC38 cells [3]; hSTINGmut-transduced MC38, 8 Gy, DMXAA 50 μg/mL 6 h): further increased
- IFN-β mRNA expression (MC38 cells [3]; hSTINGmut-transduced MC38, no irradiation, DMXAA): intermediate expression
- IFN-β mRNA expression (MC38 cells [3]; non-transduced MC38, 8 Gy, DMXAA 50 μg/mL 6 h): increase in IFN-β expression
- IL-12 mRNA levels (MC38 cells [4]; irradiated with 8 Gy): strong elevation
- IL-12 mRNA levels (MC38 cells [4]; non-irradiated): slight elevation
- IL-12 expression levels (HEK293 cells; HEK293 cells expressing ISREx4-IL12miR122T, radiation and further DMXAA treatment): significant increase in IL-12 expression levels
- IFN-β expression levels (HEK293 cells; DMXAA 50 μg/mL): upregulated
- IFN-β expression levels (HEK293 cells; DMXAA plus additional irradiation 8 Gy): significantly increased
- IFN-β production (ELISA) ([5]; 8 Gy plus DMXAA at different doses, 24 h or 48 h): exceeding the sum of those obtained with radiation alone and DMXAA alone
- IFN-β production (ELISA) ([5]; single dose 8 Gy, DMXAA 50 μg/mL 24 h later, collected after another 24 h): enhanced
- intratumor levels of IL-12 (MC38 tumors): increased significantly
- efficacy in clinical trials [6]: lack of efficacy
- tolerability in clinical trials [6]: well tolerated and only displayed minor side effects
- activation of human STING (human STING): unable to activate
- activation of hSTING[R]-S162A/G230I/Q266I [7]: highly activated
- CD8+ T cell priming and tumor elimination (established tumors): effectively prime CD8+ T cell responses and promote elimination of the established tumors

From US20250188143A1, “COMBINED GENE AND RADIO THERAPY FOR THE TREATMENT OF CANCER” (FUNDACION PARA LA INVESTIGACION MEDICA APLICADA, priority 2022, published 2025)
